Experimental data as given in patent US20250230171A1 (MOMA Therapeutics, Inc., priority 2023, published 2025).
Like-named read-outs stand apart in the source and are kept apart here.

Key:
DLD1 BRCA2 (−/−) cells = assay: 7-day cell viability assay (CellTiter-Glo), DLD1 BRCA2 (−/−); format: cell-based, human; settings: 7-day CellTiter-Glo, n=2, read-out: Viability IC50 (uM) DLD1 BRCA2 null
Protocol: (§1) Cell lines DLD1 WT and DLD1 BRCA2 (−/−) (Horizon Discovery Cat No. HD PAR-008 and HD-105-007) were plated in 384-well culture plates at seeding densities of 100cells/50 ul/well and 200 cells/50 uL/well respectively. The seeding densities are pre-determined from the growth curve kinetics performed to ensure log linear phase of cell growth for these 2 cell lines. These assay plates are then placed in the incubator at 37° C., 5% CO2, relative humidity >90% for a few hours before addition of test compounds. Compounds are dispensed using the Tecan HPD300 or Echo based on the plate map in the appropriate wells of the 384-well plates. The cells are treated with nine-point dose response with 3-fold serial dilutions of test compounds starting at 10 uM top concentration. After addition of the test compounds, the plates are incubated at 37° C., 5% CO2, relative humidity >90% for 7 days. CellTiter-Glo (Promega Cat. No. G7573), ATP detection reagent is prepared according to manufacturer's specifications. Cell assay plates are removed from incubator and bring to room temperature (RT) by letting them sit at bench top for at least 15 min. Using the MultiDrop liquid handler or a multichannel pipette, 35 μL/well of CTG is added and the plates are then placed shakes for 5 seconds, RT.

DLD1 WT cells = assay: 7-day cell viability assay (CellTiter-Glo), DLD1 parental (WT); format: cell-based, human; settings: 7-day CellTiter-Glo, n=2
Protocol: as §1

Row | Molecule | IC50 (DLD1 BRCA2 (−/−) cells; Homo sapiens, DLD-1, 168 h) | IC50 (DLD1 WT cells; Homo sapiens, DLD-1, 168 h) | IC50 (DLD1 BRCA2 (−/−) cells) | IC50 (DLD1 WT cells)
1 | COc1cnc(Cl)cc1-c1cc(C)ncc1C(=O)Nc1nc2c(s1)CN(C(C)c1ccc(C(F)F)cc1F)C2 (centres unmarked) [Example 975, 2′-chloro-N-(5-(1-(4-(difluoromethyl)-2-fluorophenyl)ethyl)-5,6-dihydro-4H-pyrrolo[3,4-d]thiazol-2-yl)-5′-methoxy-6-methyl-[4,4′-bipyridine]-3-carboxamide] | 0.001 to 0.1 µM | ≥ 10 µM | – | –
2 | 2′-Chloro-N-(5-(3,5-dimethoxypyrazine-2-carbonyl)-5,6-dihydro-4H-pyrrolo[3,4-d]thiazol-2-yl)-5′-methoxy-6-methyl-[4,4′-bipyridine]-3-carboxamide [Example 413] | – | – | 0.001 to 0.1 µM | ≥ 10 µM
3 | COc1cccc(F)c1-c1cc(C)ncc1C(=O)Nc1nc2c(s1)CN(C(=O)c1ccc(C(F)(F)F)nc1OC)C2 [Example 1013, 4-(2-fluoro-6-methoxyphenyl)-N-(5-(2-methoxy-6-(trifluoromethyl)nicotinoyl)-5,6-dihydro-4H-pyrrolo[3,4-d]thiazol-2-yl)-6-methylnicotinamide] | 0.001 to 0.1 µM | ≥ 10 µM | – | –
4 | 4-(5-Cyano-2-methoxyphenyl)-N-(5-(3-(difluoromethyl)-4-methoxybenzoyl)-5,6-dihydro-4H-pyrrolo[3,4-d]thiazol-2-yl)-6-methylnicotinamide [Example 486] | – | – | 0.001 to 0.1 µM | ≥ 10 µM
5 | COc1cnc(Cl)cc1-c1cc(C)ncc1C(=O)Nc1nc2c(s1)CN(C(=O)c1nc(C)c(C(F)(F)F)cc1F)C2 [Example 1014, 2′-chloro-N-(5-(3-fluoro-6-methyl-5-(trifluoromethyl)picolinoyl)-5,6-dihydro-4H-pyrrolo[3,4-d]thiazol-2-yl)-5′-methoxy-6-methyl-[4,4′-bipyridine]-3-carboxamide] | 0.001 to 0.1 µM | ≥ 10 µM | – | –
6 | COc1nc(C(F)(F)F)ccc1C(=O)N1Cc2nc(NC(=O)c3cnc(C)cc3-c3cc(Cl)cnc3OC)sc2C1 [Example 1003, 5-chloro-2-methoxy-N-(5-(2-methoxy-6-(trifluoromethyl)nicotinoyl)-5,6-dihydro-4H-pyrrolo[3,4-d]thiazol-2-yl)-6′-methyl-[3,4′-bipyridine]-3′-carboxamide] | 0.001 to 0.1 µM | ≥ 10 µM | – | –
7 | COc1cnc(Cl)cc1-c1cc(C)ncc1C(=O)Nc1nc2c(s1)CN(C(=O)c1nc(C)c(C(F)F)nc1C)C2 | 0.001 to 0.1 µM | ≥ 10 µM | – | –
8 | COc1cnc(Cl)cc1-c1cc(C)ncc1C(=O)Nc1nc2c(s1)CN(C(=O)c1nccc(C(F)(F)F)c1F)C2 [Example 961, 2′-chloro-N-(S-(3-fluoro-4-(trifluoromethyl)picolinoyl)-5,6-dihydro-4H-pyrrolo[3,4-d]thiazol-2-yl)-5′-methoxy-6-methyl-[4,4′-bipyridine]-3-carboxamide] | 0.001 to 0.1 µM | ≥ 10 µM | – | –
9 | COc1cnc(Cl)cc1-c1cc(C)ncc1C(=O)Nc1nc2c(s1)CN(C(=O)c1cnc(C(F)(F)F)c(C)c1C)C2 | 0.001 to 0.1 µM | ≥ 10 µM | – | –
10 | COc1ccc(C(F)F)c(C(=O)N2Cc3nc(NC(=O)c4cnc(C)cc4-c4cc(Cl)ncc4OC)sc3C2)n1 | 0.001 to 0.1 µM | ≥ 10 µM | – | –
11 | COc1cnc(Cl)cc1-c1cc(C)ncc1C(=O)Nc1nc2c(s1)CN(C(=O)c1nc(OC)c(C(F)(F)F)cc1C)C2 [Example 987, 2′-chloro-5′-methoxy-N-(5-(6-methoxy-3-methyl-5-(trifluoromethyl)picolinoyl)-5,6-dihydro-4H-pyrrolo[3,4-d]thiazol-2-yl)-6-methyl-[4,4′-bipyridine]-3-carboxamide] | 0.001 to 0.1 µM | ≥ 10 µM | – | –
12 | COc1cn2cncc2cc1-c1cc(C)ncc1C(=O)Nc1nc2c(s1)CN(C(=O)c1ccc(C(F)(F)F)nc1OC)C2 [Example 1004] | 0.001 to 0.1 µM | ≥ 10 µM | – | –
13 | COc1cnc(Cl)cc1-c1cc(C)ncc1C(=O)Nc1nc2c(s1)CN(C(=O)c1nc(C(F)(F)F)ccc1C)C2 [Example 965, 2′-chloro-5′-methoxy-6-methyl-N-(5-(3-methyl-6-(trifluoromethyl)picolinoyl)-5,6-dihydro-4H-pyrrolo[3,4-d]thiazol-2-yl)-[4,4′-bipyridine]-3-carboxamide] | 0.001 to 0.1 µM | ≥ 10 µM | – | –
14 | COc1cnc(Cl)cc1-c1cc(C)ncc1C(=O)Nc1nc2c(s1)CN(C(=O)c1ccc(C#N)c(C(F)F)n1)C2 [Example 1015, 2′-chloro-N-(5-(5-cyano-6-(difluoromethyl)picolinoyl)-5,6-dibydro-4H-pyrrolo[3,4-d]thiazol-2-yl)-5′-methoxy-6-methyl-[4,4′-bipyridine]-3-carboxamide] | 0.001 to 0.1 µM | ≥ 10 µM | – | –
15 | COc1cnc(Cl)c(F)c1-c1cc(C)ncc1C(=O)Nc1nc2c(s1)CN(C(=O)c1ccc(C(F)(F)F)nc1OC)C2 [Example 1023, 2′-chloro-3′-fluoro-5′-methoxy-N-(5-(2-methoxy-6-(trifluoromethyl)nicotinoyl)-5,6-dihydro-4H-pyrrolo[3,4-d]thiazol-2-yl)-6-methyl-[4,4′-bipyridine]-3-carboxamide] | 0.001 to 0.1 µM | ≥ 10 µM | – | –

The next lines start with results.

Row | IC50 (DLD1 BRCA2 (−/−) cells; Homo sapiens, DLD-1, 168 h) | Molecule | IC50 (DLD1 WT cells; Homo sapiens, DLD-1, 168 h) | IC50 (DLD1 BRCA2 (−/−) cells) | IC50 (DLD1 WT cells)
16 | 0.001 to 0.1 µM | COc1cnc(Cl)cc1-c1cc(C)ncc1C(=O)Nc1nc2c(s1)CN(C(=O)c1cc(C)c(C(F)F)cn1)C2 [Example 903, 2′-chloro-N-(5-(5-(difluoromethyl)-4-methylpicolinoyl)-5,6-dihydro-4H-pyrrolo[3,4-d]thiazol-2-yl)-5′-methoxy-6-methyl-[4,4′-bipyridine]-3-carboxamide] | ≥ 10 µM | – | –
17 | 0.001 to 0.1 µM | COc1nnc(C(F)F)cc1-c1cc(C)ncc1C(=O)Nc1nc2c(s1)CN(C(=O)c1nccc(C(F)(F)F)c1F)C2 [Example 1026, 4-(6-(difluoromethyl)-3-methoxypyridazin-4-yl)-N-(5-(3-fluoro-4-(trifluoromethyl)picolinoyl)-5,6-dihydro-4H-pyrrolo[3,4-d]thiazol-2-yl)-6-methylnicotinamide] | ≥ 10 µM | – | –
18 | 0.001 to 0.1 µM | COc1cnc(Cl)cc1-c1cc(C)ncc1C(=O)Nc1nc2c(s1)CN(C(=O)c1ncc(C(F)F)c(C)n1)C2 | ≥ 10 µM | – | –
19 | 0.001 to 0.1 µM | COc1cnc(Cl)cc1-c1cc(C)ncc1C(=O)Nc1nc2c(s1)CN(C(=O)c1nc(C)cc(C(F)(F)F)c1C)C2 [Example 999, 2′-chloro-N-(5-(3,6-dimethyl-4-(trifluoromethyl)picolinoyl)-5,6-dihydro-4H-pyrrolo[3,4-d]thiazol-2-yl)-5′-methoxy-6-methyl-[4,4′-bipyridine]-3-carboxamide] | ≥ 10 µM | – | –
20 | 0.001 to 0.1 µM | COc1cnc(Cl)cc1-c1cc(C)ncc1C(=O)Nc1nc2c(s1)CN(C(=O)c1ncc(OC(F)F)cc1C)C2 | ≥ 10 µM | – | –
21 | 0.001 to 0.1 µM | COc1ncc(Cl)cc1-c1cc(C)ncc1C(=O)Nc1nc2c(s1)CN(C(=O)c1nccc(C(F)(F)F)c1OC)C2 [Example 1034, 5-chloro-2-methoxy-N-(5-(3-methoxy-4-(trifluoromethyl)picolinoyl)-5,6-dihydro-4H-pyrrolo[3,4-d]thiazol-2-yl)-6′-methyl-[3,4′-bipyridine]-3′-carboxamide] | ≥ 10 µM | – | –
22 | 0.001 to 0.1 µM | COc1cnc(C(F)F)cc1-c1cc(C)ncc1C(=O)Nc1nc2c(s1)CN(C(=O)c1cccc(C(F)F)n1)C2 | ≥ 10 µM | – | –
23 | 0.001 to 0.1 µM | COc1cnc(Cl)cc1-c1cc(C)ncc1C(=O)Nc1nc2c(s1)CN(C(=O)c1nc(C(F)(F)F)c(C)cc1C)C2 [Example 1012, 2′-chloro-N-(5-(3,5-dimethyl-6-(trifluoromethyl)picolinoyl)-5,6-dihydro-4H-pyrrolo[3,4-d]thiazol-2-yl)-5′-methoxy-6-methyl-[4,4′-bipyridine]-3-carboxamide] | ≥ 10 µM | – | –
24 | 0.001 to 0.1 µM | COc1cnc(Cl)cc1-c1cc(C)ncc1C(=O)Nc1nc2c(s1)CN(C(=O)c1cnc(C(F)(F)F)c(C)n1)C2 | 0.5 to 2 µM | – | –
25 | 0.001 to 0.1 µM | Cc1cc(-c2cc(Cl)ncc2OC(F)F)c(C(=O)Nc2nc3c(s2)CN(C(=O)c2nc(C(F)F)ccc2Cl)C3)cn1 [Example 922, 2′-chloro-N-(S-(3-chloro-6-(difluoromethyl)picolinoyl)-5,6-dihydro-4H-pyrrolo[3,4-d]thiazol-2-yl)-5′-(difluoromethoxy)-6-methyl-[4,4′-bipyridine]-3-carboxamide] | ≥ 10 µM | – | –
26 | 0.1 to 0.25 µM | COc1cnc(Cl)cc1-c1cc(C)ncc1C(=O)Nc1nc2c(s1)CN(C(=O)c1nc(C)cnc1C)C2 | ≥ 10 µM | – | –
27 | 0.001 to 0.1 µM | COc1cnc(Cl)cc1-c1cc(C)ncc1C(=O)Nc1nc2c(s1)CN(C(=O)c1c(C)cc(C(F)(F)F)nc1OC)C2 [Example 1019, 2′-chloro-5′-methoxy-N-(5-(2-methoxy-4-methyl-6-(trifluoromethyl)nicotinoyl)-5,6-dihydro-4H-pyrrolo[3,4-d]thiazol-2-yl)-6-methyl-[4,4′-bipyridine]-3-carboxamide] | ≥ 10 µM | – | –
28 | 0.001 to 0.1 µM | COc1ncc(C(F)(F)F)c(C(=O)N2Cc3nc(NC(=O)c4cnc(C)cc4-c4cc(Cl)ncc4OC)sc3C2)n1 [Example 994, 2′-chloro-5′-methoxy-N-(5-(2-methoxy-5-(trifluoromethyl)pyrimidine-4-carbonyl)-5,6-dihydro-4H-pyrrolo[3,4-d]thiazol-2-yl)-6-methyl-[4,4′-bipyridine]-3-carboxamide] | ≥ 10 µM | – | –
